A short description of data set [1]: Silymarin solubility at elevated temperatures (Example 3, HPLC). In kind it is physicochemical. Conditions: 160 mg silymarin in 1 ml 0.1 M CAPTISOL®, sealed vial, 70-75° C., about one hour. Here is the method: The solubility of silymarin was also studied at elevated temperatures. The silymarin-water samples were prepared by adding 3.0 ml of deionized water or 3.0 ml of CAPTISOL® solution (0.05 M, 0.10 M, or 0.20 M) to 155 mg silymarin 80% in 5 ml Eppendorf tube, and the tubes were capped securely to minimize evaporation loss and submerged in a water bath at an elevated temperature (60° C. or 75° C.)). CAPTISOL® solutions were prepared by dissolving CAPTISOL® in water. The solution in the tube was stirred for a certain amount of time. The solution was then centrifuged for 5 min twice and the supernatant was diluted with 40% methanol for HPLC analysis. The silymarin CAPTISOL® samples were diluted by adding 10 μL supernatant sample to 990 μL diluent. The silymarin water samples were diluted by adding 100 μL supernatant sample to 900 μL diluent. The diluted samples were then analyzed using HPLC according to the procedures described in Example 1.
Saturated CAPTISOL® silymarin solutions were also prepared by adding 160 mg silymarin to 1 ml of 0.1 M CAPTISOL® solution in a sealed vial under mechanic stirring and the vial was kept in a water bath at 70-75° C. The solution became quickly saturated in about one hour. The solution was then cooled to room temperature and centrifuged, and the supernatant can then be used for preparing various formulations. […]

Data set [2] can be described thus: Solubility of silymarin components in water (Example 10, HPLC). The settings on record: water; component of Indena silymarin extract, HPLC; read-out: Solubility in water. In kind it is physicochemical. Here is the method: Silymarin components including taxifolin, silydianin, silychristin, silybin A, silybin B, isosilybin A, and isosilybin B were tested for their solubility in water and also for their Log D value. The silymarin extract was obtained from Indena® (Indena Code: 9065110). The HPLC system consisted of Waters system equipped with performance PLUS inline degasser along dual λ absorbance detector set at 288 nm. The chromatographic separation of silymarin constituents was achieved on a Symmetry Shield RP18 column (150×4.6 mm, 5 μm); which was maintained at ambient room temperature conditions. The binary mobile phase system consisted of reservoir A (methanol: 10 mM ammonium acetate pH 5 [65:35 v/v]) and reservoir B (10 mM ammonium acetate, pH 5) were run as per gradient program (0-1.9 min: 25% A and 75% B; 2.0-14.9 min: 80% A and 20% B and 15-37.9 min: 80% A and 20% B and 38-40 min: 25% A and 75% B). The flow rate was 1 mL/min throughout the analytical run.

Data set [3] can be described thus: Pharmacokinetic study in rat. In kind it is in vivo. Conditions: oral, FIG. 21A. The method, then: The Silymarin-CAPTISOL® complex was administered to rat to test its pharmacokinetic properties.
On arrival rats were housed individually in cages at animal care facility in a temperature and humidity controlled room with a 12 h:12 h (light:dark) cycles. The rats were provided with free access to food and water for one week before using for experimental purpose. The 12 rats were equally divided into three groups—Group I: silymarin-CAPTISOL® complex with a CAPTISOL® concentration of 100 mM for oral administration; Group II: silymarin suspension (Control); and Group III: silymarin complex with a CAPTISOL® concentration of 100 mM for intravenous administration. The animals were fasted overnight with free access to water. On the day of experiment, the rat was removed from animal care facility and brought to the procedure lab. The animal was weighed and appropriate dosing volume was determined. For oral administration, rat's head was held in place by gently extending the head back and supporting the lower body. The gavage tube was placed in the mouth and advanced along the lower palate till the esophagus, and the silymarin was administered through the tube. For intravenous administration, the silymarin-CAPTISOL® complex was administered by slow bolus intravenous injection into the tail vein. Approximately 200 μL blood was drawn into heparin coated tubes at pre dose, 0.15, 0.5, 1, 2, 4, 8, 10 and 24 h for oral group II and for intravenous group III. The sampling time points were predose, 0.12, 0.25, 0.5, 1, 2, 4, 8 and 24 h through the jugular vein catheter. Plasma was harvested by centrifuging the blood at 4000 RPM for 5 min and stored frozen at −80±10° C. until analysis.
Stored plasma was thawed just before performing the silymarin components analysis. 200 μL of acetonitrile containing 0.1% of ammonia was added to 50 μL of plasma, and this mixture was vortexed for 5 min and centrifuged at 4° C. for 5 min at 10,000 RPM. After centrifugation, the supernatant was separated and injected into HPLC for analysis of silymarin constituents taxifolin, silydianin, silychristin, silybin A, silybin B, isosilybin A and isosilybin B.
The plasma concentration-time curves of silybin A, silybin B, isosilybin A, and isosilybin B in the Silymarin-CAPTISOL® sample of Group I and the control sample (silymarin suspension) are respectively shown in FIGS. 20A to 20D.

Molecules are shown by their SMILES. Values after ≈ are worked out from the molar mass of the structure shown.

As usually defined, the solubility is how much of the substance goes into solution per volume. As for `O=C1c2c(O)cc(O)cc2O[C@H](c2ccc(O)c(O)c2)[C@H]1O` [Taxifolin], the “concentration fold higher than in the water silymarin sample” value in data set [1] was found to be 5 fold. Further, in data set [2], the solubility stood at 550 µg/mL (≈ 1810 µM). Also, the “AUC of Silymarin-CAPTISOL® complex compared with the control sample” value in data set [3] is listed as “higher AUC”.

The record behind these values is US10702568B2, “Compositions containing silymarin and sulfoalkyl ether cyclodextrin and methods of using the same” (UNIVERSITY OF KANSAS, priority 2015, dated 2020).
